Experimental data published in patent US10851412B2, “Cell potency assay for therapeutic potential” (FATE THERAPEUTICS, INC., priority 2013, dated 2020).

System: Human umbilical cord blood
Assay: Cell potency assay: real-time PCR signature gene expression score of treated cord blood
Format: cell-based
Experimental: Human umbilical cord blood was treated ex vivo with 16,16, dimethyl prostaglandin E2 (dmPGE2) prior to transplantation. Real-time PCR transcript quantitation of gene expression from the treated cord blood cells was used to determine the therapeutic potential of the cells. RNA was extracted from an aliquot (100 uL) of the treated cord blood cells using the PicoPure RNA Isolation kit (Life Technologies) using the manufacturer's recommended protocol. Total RNA was quantified using the Nanodrop 2000 Spectrophotometer (Thermo Scientific). Complimentary DNA (cDNA) was reverse transcribed from 50 ng of total RNA using the High-Capacity cDNA Reverse Transcription Kit (Life Technologies).
Quantitative PCR was performed in triplicate for each gene in the amplified cDNA using StepOne Plus (Applied Biosystems) and Taqman gene expression assays (Life Technologies) and 40 cycles of real-time PCR. Results of the real-time PCR were analyzed using the StepOne Software v2.1 analysis package (Applied Biosystems). Expression values of the transcripts were normalized to the Taqman gene expression average for the housekeeping genes, GAPDH and HPRT1, to determine the relative expression levels (ΔCt values). […]

CCCCC(C)(C)[C@H](O)/C=C/[C@H]1[C@H](O)CC(=O)[C@@H]1C/C=C\CCCC(=O)O [dmPGE2, 16,16, dimethyl prostaglandin E2]
gene expression in the group of signature genes (real-time PCR) (human umbilical cord blood after a two hour treatment): Increased gene expression | gene expression score (standardized Euclidean distance model vs training set) (human umbilical cord blood treated ex vivo, about two hours at 37° C. with 10 μM dmPGE2, test samples n=10, mean +/- SD, positive scores cluster with samples having therapeutic potential): 16.8+/−2.2
